The target in one assay is HsCDK2/cyclin A (Homo sapiens, UniProt P24941). Kind of assay: Radiometric Flashplate potency assay, HsCDK2/cyclin A. Format: biochemical. The note with it: for ratio HsCDK2/TbGSK3: ratio of IC50 values; for pIC50: average of two or more experiments, 1 μM ATP. The procedure: (§1) For compound potency determinations, a radiometric 96-well Flashplate assay (PerkinElmer) was adopted. Compounds were solubilized in DMSO at a top concentration of 3 mM and serially diluted to achieve 10-point titration of final assay concentrations from 30 μM to 0.3 nM with a final DMSO concentration of 1% (v/v). The reaction mixtures contained 1 μM biotinylated GSP2 substrate, 1 μM ATP, 3.7 KBq/well [γ-33P]-ATP and 2.5 nM TbGSK3 in the TbGSK3 kinase assay buffer. GSK3 inhibitors were screened for selectivity assessment also against HsGSK3β. For HsGSK3 assay, the reaction mixes contained 1 μM biotinylated GSP2 substrate, 2 μM ATP, 7.4 KBq/well [γ-33P]-ATP and 15 nM HsGSK3β in the TbGSK3 kinase assay buffer (25 mM Tris-HCl, pH 7.5, 10 mM MgCl2, 5 mM DTT, 0.02% CHAPS, 2 U/mL heparin). For HsCDK2/cyclin A assay, the reaction mixtures contained 1 mM CDK5 biotinylated peptide substrate (Biotin-C6-PKTPKKAKKL), 1 μM ATP, 7.4 KBq/well [γ-^33P]-ATP and 2 nM HsCDK2/cyclin A in the kinase assay buffer (50 mM Tris-HCl, pH 7.5, 10 mM MgCl2, 2 mM DTT, 100 mM NaCl, 0.2 mM EGTA, 0.02% (v/v) Brij35).
For the HsCDK2 assay, the analysis was performed using two different standards (GW8510 and staurosporine) tested respectively five times in a single run and 19 times in 2 independent runs. This implies that a difference of >0.3 in pIC50 can be considered statistically significant for this assay.

The target of a further assay is HsGSK3β (Homo sapiens, UniProt P49841). The assay is described as follows: Radiometric Flashplate potency assay, HsGSK3β. It counts as biochemical. To be noted: for ratio HsGSK3β/TbGSK3: ratio of IC50 values. The procedure: as §1
HsGSK3β, sequence (P49841 whole entry): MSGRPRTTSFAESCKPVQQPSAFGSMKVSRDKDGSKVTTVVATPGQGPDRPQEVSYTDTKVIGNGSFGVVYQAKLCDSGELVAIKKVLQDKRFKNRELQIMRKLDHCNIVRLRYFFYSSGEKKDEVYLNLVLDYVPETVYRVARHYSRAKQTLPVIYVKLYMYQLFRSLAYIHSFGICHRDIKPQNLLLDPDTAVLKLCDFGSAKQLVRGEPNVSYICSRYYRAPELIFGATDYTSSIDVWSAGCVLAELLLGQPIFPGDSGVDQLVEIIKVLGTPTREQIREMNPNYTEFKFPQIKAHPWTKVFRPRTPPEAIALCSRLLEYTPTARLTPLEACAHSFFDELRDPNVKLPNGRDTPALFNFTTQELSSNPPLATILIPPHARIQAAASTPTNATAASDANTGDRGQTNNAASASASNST
This implies that a difference of >0.3 in pIC50 can be considered statistically significant for this assay.

In a further assay the target is T1, TbGSK3 short (Trypanosoma brucei brucei, UniProt Q388M1).
T1 sequence (Q388M1 1-352): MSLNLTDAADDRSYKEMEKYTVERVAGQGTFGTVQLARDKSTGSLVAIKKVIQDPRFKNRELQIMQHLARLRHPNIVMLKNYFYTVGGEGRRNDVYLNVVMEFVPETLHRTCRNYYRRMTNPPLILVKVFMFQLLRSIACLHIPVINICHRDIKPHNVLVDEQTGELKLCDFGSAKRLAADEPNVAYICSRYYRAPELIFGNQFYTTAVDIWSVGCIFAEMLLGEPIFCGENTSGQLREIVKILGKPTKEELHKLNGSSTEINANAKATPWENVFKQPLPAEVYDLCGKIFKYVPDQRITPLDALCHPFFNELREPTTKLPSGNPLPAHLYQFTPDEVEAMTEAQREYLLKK
The assay is described as follows: Radiometric 96-well Flashplate potency assay, TbGSK3. It counts as biochemical. The note with it: for decrease in potency against TbGSK3: relative to cyclohexane analogue 9c. The procedure:
as §1
The statistical significance of the compound potency (IC50) was based on the performance of standard molecules which have been tested to a high replication. In the case of TbGSK3 short assay, the standard compound GW8510 was tested 93 times across 9 independent runs. […] The minimum significant ratio (MSR) of 0.4 was evaluated considering the following formula: [drawing 1] where SD is the standard deviation and N the number of replicate values routinely used for the assay (2 in our case).[31] This implies that a difference of >0.4 in pIC50 can be considered statistically significant for this assay.

The test system of a further assay is MRC5 cells. The assay is described as follows: MRC5 proliferation assay (resazurin). It counts as cell-based, human. To be noted: T. b. brucei versus MRC5 EC50. The procedure: Measurement of inhibition of the proliferation of MRC5 (human lung fibroblast) cells and T. b. brucei bloodstream stage cells was performed using a modification of the cell viability assay previously described.[33] Compounds (50 μM to 0.5 nM) were incubated with 2 × 10^3 cells/well in 0.2 mL of the appropriate culture medium (MEM with 10% fetal bovine serum for MRC5 cells) in clear 96-well plates. Plates were incubated at 37 °C in the presence of 5% CO2 for 69 h. Resazurin was then added to a final concentration of 50 μM, and plates were incubated as above for a further 4 h before being read on a BioTek flx800 fluorescent plate reader.

pIC50: −log10 of the molar value.

This is an account of results in publication PMC4175002, “The Design and Synthesis of Potent and Selective Inhibitors of Trypanosoma brucei Glycogen Synthase Kinase 3 for the Treatment of Human African Trypanosomiasis” (Journal of Medicinal Chemistry, 2014).

As to `CO[C@H]1CC[C@H](NC(=O)c2n[nH]cc2NC(=O)c2ccccc2F)CC1` [Compound 4g, 4-(2-Fluorobenzamido)-N-(4-methoxycyclohexyl)-1H-pyrazole-3-carboxamide], the “ratio HsCDK2/TbGSK3” value at HsCDK2/cyclin A is on record as <0.7. `CO[C@H]1CC[C@H](NC(=O)c2n[nH]cc2NC(=O)c2ccccc2C(F)(F)F)CC1` [Compound 4h, N-(4-Methoxycyclohexyl)-4-(2-(trifluoromethyl)benzamido)-1H-pyrazole-3-carboxamide]: the “ratio HsGSK3β/TbGSK3” value on HsGSK3β is reported as <0.72.

Take `CO[C@H]1CC[C@H](NC(=O)c2n[nH]cc2NC(=O)c2ccccc2Nc2ccccc2)CC1` [Compound 4k, N-(4-Methoxycyclohexyl)-4-(2-(phenylamino)benzamido)-1H-pyrazole-3-carboxamide]: on HsCDK2/cyclin A, the pIC50 (in general, the IC50 on a negative log10 scale, so that one unit is a factor of ten) was < 5.00 and the “ratio HsCDK2/TbGSK3” value is reported as >910. For `CO[C@H]1CC[C@H](NC(=O)c2n[nH]cc2NC(=O)c2ccccc2Nc2cccc(C)c2C)CC1` [Compound 4l, 4-(2-((2,3-Dimethylphenyl)amino)benzamido)-N-(4-methoxycyclohexyl)-1H-pyrazole-3-carboxamide] the same measures were < 5.00 and >150. For the compound `COc1cc(OC)c(C(=O)Nc2c[nH]nc2C(=O)N[C@H]2CC[C@H](OC)CC2)c(OC)c1` [Compound 4n, N-(4-Methoxycyclohexyl)-4-(2,4,6-trimethoxybenzamido)-1H-pyrazole-3-carboxamide], on TbGSK3 short (more potent than the unsubstituted phenyl compound 4f), the “TbGSK3 potency relative to 4f” value is on record as “approximately 10 fold”. For the same compound, the “selectivity over HsGSK3” value on HsGSK3β (TbGSK3 versus HsGSK3, running text) was > 10 fold. In addition, the “selectivity over HsCDK2” value on HsCDK2/cyclin A (TbGSK3 versus HsCDK2, running text) is listed as > 1000 fold. Further, the “selectivity over MRC5 cells” value in the assay with MRC5 cells is > 9 fold. In the case of `CO[C@H]1CC[C@H](NC(=O)c2n[nH]cc2NC(=O)c2ccc(F)cc2F)CC1` [Compound 4o, 4-(2,4-Difluorobenzamido)-N-(4-methoxycyclohexyl)-1H-pyrazole-3-carboxamide], the “ratio HsGSK3β/TbGSK3” value at HsGSK3β was <0.09. Regarding `CO[C@H]1CC[C@H](NC(=O)c2n[nH]cc2NC(=O)c2cc(F)cc(F)c2)CC1` [Compound 4p, 4-(3,5-Difluorobenzamido)-N-(4-methoxycyclohexyl)-1H-pyrazole-3-carboxamide], the “ratio HsGSK3β/TbGSK3” value on HsGSK3β is <0.21. Still for that read-out and setting: under `CO[C@H]1CC[C@H](NC(=O)c2n[nH]cc2NC(=O)c2cc(Cl)cc(Cl)c2)CC1` [Compound 4q, 4-(3,5-Dichlorobenzamido)-N-(4-methoxycyclohexyl)-1H-pyrazole-3-carboxamide] stands <0.08; under `CO[C@H]1CC[C@H](NC(=O)c2n[nH]cc2NC(=O)c2ccc(OC(F)F)cc2)CC1` [Compound 4r, 4-(4-(Difluoromethoxy)benzamido)-N-(4-methoxycyclohexyl)-1H-pyrazole-3-carboxamide], <0.31.

As to `CO[C@H]1CC[C@H](NC(=O)c2n[nH]cc2NC(=O)c2ccc(N3CCCC3)cc2)CC1` [Compound 4s, N-(4-Methoxycyclohexyl)-4-(4-(pyrrolidin-1-yl)benzamido)-1H-pyrazole-3-carboxamide], at HsGSK3β, the “ratio HsGSK3β/TbGSK3” value is given as <0.26. Besides, the “selectivity over MRC5 cells” value with MRC5 cells is > 19 fold. `CO[C@H]1CC[C@H](NC(=O)c2n[nH]cc2NC(=O)c2ccc(N3CCN(C)CC3)cc2)CC1` [Compound 4t, N-(4-Methoxycyclohexyl)-4-(4-(4-methylpiperazin-1-yl)benzamido)-1H-pyrazole-3-carboxamide]: on HsGSK3β, the “ratio HsGSK3β/TbGSK3” value is <0.071.

`CO[C@H]1CC[C@H](NC(=O)c2n[nH]cc2NC(=O)c2cc3ccccc3o2)CC1` [Compound 4u, 4-(Benzofuran-2-carboxamido)-N-(4-methoxycyclohexyl)-1H-pyrazole-3-carboxamide]: at HsGSK3β, the “ratio HsGSK3β/TbGSK3” value was <0.38. Take `CO[C@H]1CC[C@H](NC(=O)c2n[nH]cc2NC(=O)c2cc3ccccn3n2)CC1` [Compound 4v, N-(3-((4-Methoxycyclohexyl)carbamoyl)-1H-pyrazol-4-yl)pyrazolo[1,5-a]pyridine-2-carboxamide]: the “ratio HsGSK3β/TbGSK3” value on HsGSK3β is <0.080. Turning to `CO[C@H]1CC[C@H](NC(=O)c2n[nH]cc2NC(=O)c2cnc3ccccn23)CC1` [Compound 4w, N-(3-((4-Methoxycyclohexyl)carbamoyl)-1H-pyrazol-4-yl)imidazo[1,2-a]pyridine-3-carboxamide], the “ratio HsGSK3β/TbGSK3” value at HsGSK3β was <0.053. Take `CO[C@H]1CC[C@H](NC(=O)c2n[nH]cc2NC(=O)c2c(C)nc3ccccn23)CC1` [Compound 4x, N-(3-((4-Methoxycyclohexyl)carbamoyl)-1H-pyrazol-4-yl)-2-methylimidazo[1,2-a]pyridine-3-carboxamide]: in the assay on MRC5 cells, the “selectivity over MRC5 cells” value was 12 fold.

As for `COc1cccc(OC)c1C(=O)Nc1c[nH]nc1C(=O)NC1CC1` [Compound 9a, N-Cyclopropyl-4-(2,6-dimethoxybenzamido)-1H-pyrazole-3-carboxamide], the “ratio HsCDK2/TbGSK3” value at HsCDK2/cyclin A is reported as >830. Take `COc1cccc(OC)c1C(=O)Nc1c[nH]nc1C(=O)NC1CCCCC1` [Compound 9c, N-Cyclohexyl-4-(2,6-dimethoxybenzamido)-1H-pyrazole-3-carboxamide]: the “selectivity over MRC5 cells” value in the assay with MRC5 cells is reported as > 7 fold. Take `COc1cccc(OC)c1C(=O)Nc1c[nH]nc1C(=O)NC1CCCCCC1` [Compound 9d, N-Cycloheptyl-4-(2,6-dimethoxybenzamido)-1H-pyrazole-3-carboxamide]: the “selectivity over MRC5 cells” value in the assay with MRC5 cells is reported as > 7 fold.

Take `COc1cccc(OC)c1C(=O)Nc1c[nH]nc1C(=O)Nc1ccccc1` [Compound 9k, 4-(2,6-Dimethoxybenzamido)-N-phenyl-1H-pyrazole-3-carboxamide]: the “decrease in potency against TbGSK3” value at TbGSK3 short came to 6 fold. Take `COc1cccc(OC)c1C(=O)Nc1c[nH]nc1C(=O)Nc1ccncc1` [Compound 9l, 4-(2,6-Dimethoxybenzamido)-N-(pyridin-4-yl)-1H-pyrazole-3-carboxamide]: the “decrease in potency against TbGSK3” value on TbGSK3 short is 6 fold. As for `COc1cccc(OC)c1C(=O)Nc1c[nH]nc1C(=O)Nc1ccccn1` [Compound 9m, 4-(2,6-Dimethoxybenzamido)-N-(pyridin-2-yl)-1H-pyrazole-3-carboxamide], the “loss of activity against TbGSK3” value on TbGSK3 short (2-pyridine analogue much less active, comparator not stated clearly (9c or 9k/9l)) is 50 fold. Consider `CCCCCNC(=O)c1n[nH]cc1NC(=O)c1c(OC)cccc1OC` [Compound 9s, 4-(2,6-Dimethoxybenzamido)-N-pentyl-1H-pyrazole-3-carboxamide], for which the “ratio HsGSK3β/TbGSK3” value on HsGSK3β is 100. The “selectivity over MRC5 cells” value with MRC5 cells was > 7 fold. Consider `COc1cccc(OC)c1C(=O)Nc1c[nH]nc1C(=O)NCCCOC(C)C` [Compound 9t, 4-(2,6-Dimethoxybenzamido)-N-(3-isopropoxypropyl)-1H-pyrazole-3-carboxamide], for which, in the assay with MRC5 cells, the “selectivity over MRC5 cells” value is listed as > 7 fold. Turning to `COc1cccc(OC)c1C(=O)Nc1c[nH]nc1C(=O)N[C@H]1CC[C@H](OC)CC1` [Compound 9x], the “ratio HsGSK3β/TbGSK3” value on HsGSK3β is on record as <2.5.

As to `O=C1Nc2ccc3ncsc3c2/C1=C/Nc1ccc(S(=O)(=O)Nc2ccccn2)cc1` [GW8510, reference compound], the “average pIC50 TbGSK3 short assay” value on TbGSK3 short (standard compound tested 93 times across 9 independent runs, SD 0.23) is listed as 8.26. Also, the “average pIC50 HsGSK3 assay” value at HsGSK3β (standard compound tested 47 times across 5 independent runs, SD 0.21) is 8.10.
